Reference: patent publication US20260365696A1, “INHIBITORS OF PTP1B / NCK1 INTERACTION AND METHODS OF MAKING AND USING SAME” (Radella Pharmaceuticals LLC, priority 2023, published 2026)
Residues, ends and D or L forms follow the SMILES beside them.

Target: T1, SH3-2 domain of NCK1 (Homo sapiens, UniProt P16333)
T1 construct: To amplify the NCK1 SH3-2 domain, the primers; 10xHis tag with TEV site (vector pSF-OXB20-NH2-10HIS) (N, cleaved yes); made in house; host or cells: E. coli C43(DE3)
Assay: Isothermal titration calorimetry (ITC) binding to NCK1 SH3-2 domain
Conditions: Alanine scanning of the MD17 15-mer peptide; ITC, 25 °C, pH 8.0
Description: Human PTP1B cDNA (NM_002827) and human NCK1 cDNA (NM 006153) were obtained (Origene, MD, USA). PTP1B Primers were designed to amplify the ORFs with added homology to the cut vector (EcoRI-digested pSF-OXB20-NH2-10HIS) in the forward primer sequence. To amplify full-length PTP1B, the primers ptp1b_FL_fwd ([…]) (SEQ ID NO: 159) and ptp1b_FL_rev ([…]) (SEQ ID NO: 160) were used. To amplify truncations of PTP1B, the following primer pairs were used: ptp1b_FL-Fwd and one of Ptplb_323stop_rev (gtgcaggaggagttcgaatt[…]) (SEQ ID NO: 161), ptp1b_344stop_rev ([…]) (SEQ ID NO: 162) or ptp1b_278stop_rev([…]) (SEQ ID NO: 163). To amplify the NCK1 SH3-2 domain, the primers ncklsh32_fwd ([…]) (SEQ ID NO: 164) and ncklsh32_rev ([…]) (SEQ ID NO: 165) were used. The amplified fragments were purified using a DNA clean-up kit according to manufacturer's instructions (QIAquick PCR purification kit, Qiagen).
To produce and purify fusion proteins, a culture was inoculated with 1% of overnight-cultured inoculum. Protein expression was carried out under the conditions described above, scaled up as necessary. Cells expressing the recombinant proteins were harvested in 50 mL tubes by centrifugation and stored at −80 °C. Cells containing the expressed gene product were thawed over ice and resuspended in Extraction buffer (10 mM Tris, pH 7.4 or 10 mM Sodium Phosphate, pH 8.0; 300 mM NaCl, 1 mM DTT or TCEP; 0-10% glycerol and 1 μg lysozyme) and sonicated over ice (4 °C) for 3 min total using pulses of 5 s with 15 s intervals, using a wide probe at 15 amplitude microns (Soniprep 150, MSE). Insoluble material was removed from the lysate by centrifugation at 20K rpm for 20-60 min at 4 °C. Supernatant was filtered through a 0.22 μm PVDF filter membrane and applied to 1-2 5 mL HisTrap FF Crude (Cytiva) prepacked Ni columns and connected to an AKTA explorer. After thorough washing with binding buffer (10 mM Tris, pH 7.4 or 10 mM Sodium Phosphate, pH 8.0; 300 mM NaCl; 1 mM DTT or TCEP and 25 mM Imidazole), protein was eluted using elution buffer (10 mM Tris, pH 7.4 or 10 mM Sodium Phosphate, pH 8.0; 150-300 mM NaCl; 1 mM DTT or TCEP and 250 mM Imidazole). Fractions containing protein of interest were confirmed by SDS PAGE. Protein was diluted with GF buffer (10 mM Tris, pH 7.4 or 10 mM Sodium Phosphate, pH 8.0; 150-300 mM NaCl) and subjected to TEV protease treatment overnight at 4-10 °C. Following proteolytic digestion, HIS-tag and TEV protease were removed by filtration through a clean 5 mL HisTrap FF Crude (Cytiva) prepacked Ni column. Protein was concentrated on a PES ultrafiltration device by centrifugation at 4000 rpm at 4 °C, and protein was polished via a HiPrep S-100 26/60 (Cytiva) using GF buffer (as described above). Purified proteins were concentrated using ultrafiltration, and protein concentration was determined using ultraviolet-visible spectroscopy. The integrity and identity of all proteins were verified by mass spectrographic analysis.
Isothermal titration calorimetry (ITC) was used to determine binding affinities for peptides against the SH3-2 domain of NCK1. Experiments were conducted at 25 °C using either a MicroCal iTC200 or MicroCal PEAQ-ITC calorimeter. The buffer used for all ITC experiments was 10 mM sodium [COMPOUND LEFT OUT] mM sodium chloride (pH=8.0). A series of peptides (concentration 3-7.5 mM) were titrated in to NCK1 SH3-2 domain (concentration 0.125-0.3 mM) using the following conditions: one injection of 0.2 μL followed by 19 injections of 2 μL, 120-150 seconds spacing between injections, at 25 °C. The data were fit using analysis software provided by the manufacturer and affinity values were calculated. The best fitting occurred when the number of sites was between 0.8 and 1.2. The experiments were repeated twice for a total of three times, and the average binding affinity for each peptide was generated. […]

Kd	Molecule
≤ 300 µM	Ac-PPPEHAPPPPRPPKR-NH2 [MSJ017]
≤ 300 µM	Ac-APPEHIPPPPRPPKR-NH2 [MSJ012]
≤ 300 µM	Ac-PPAEHIPPPPRPPKR-NH2 [MSJ014]

Continued, molecule first:

Molecule	Kd
Ac-PPPEHIPPPPRPPKA-NH2 [MH007]	> 1000 µM
Ac-PPPEHIPPPPAPPKR-NH2 [MH003]	≤ 300 µM

Same assay, conditions: Alanine scanning of the MD20 6-mer peptide; ITC, 25 °C, pH 8.0

Kd	Molecule
> 1000 µM	Ac-ARPPKR-NH2 [MH008, Ac-ARPPKR-NH2]
> 1000 µM	Ac-PRPPKA-NH2 [MH013, Ac-PRPPKA-NH2]
> 1000 µM	Ac-PRAPKR-NH2 [MH010, Ac-PRAPKR-NH2]
≤ 300 µM	Ac-PAPPKR-NH2 [MH009, Ac-PAPPKR-NH2]

Same assay, conditions: ITC

binding to NCK1 SH3-2 domain (in words)	Molecule
abolished binding	Ac-PRPPKA-NH2 [MH013, Ac-PRPPKA-NH2]
abolished binding	Ac-PPRPPK-NH2 [MH035, Ac-PPRPPK-NH2]
abolished binding	Ac-PPPRPPK-NH2 [MH041, Ac-PPPRPPK-NH2]

Same assay, conditions: Modified MD18/MD20 peptides; ITC, 25 °C, pH 8.0

Kd	Molecule
≤ 300 µM	CCNC(=O)[C@H](CCCNC(=N)N)NC(=O)[C@H](CCCCN)NC(=O)[C@@H]1CCCN1C(=O)[C@@H]1CCCN1C(=O)[C@H](CCCNC(=N)N)NC(=O)[C@@H]1CCCN1C(=O)[C@@H]1CCCN1C(C)=O [MH046, Ac-PPRPPKR-NHEt] (Ac-PPRPPKR-NHEt)

Same assay, conditions: N- or C-terminal extensions; ITC, 25 °C, pH 8.0; 30-mers tested one to three times

Kd	Molecule
≤ 300 µM	Ac-WKELSHEDLEPPPEHIPPPPRPPKR-NH2 [MH135]
≤ 300 µM	Ac-PPPEHIPPPPRPPKRILEPH-NH2 [MH089]
≤ 300 µM	Ac-PPRPPKRILE-NH2 [MH065]
≤ 300 µM	Ac-PPPEHIPPPPRPPKRILE-NH2 [MH077]

Same assay, conditions: Peptide truncation analysis; ITC, 25 °C, pH 8.0

Kd	Molecule
> 1000 µM	CC(=O)N1CCC[C@H]1C(=O)N[C@@H](CCCNC(=N)N)C(=O)N1CCC[C@H]1C(=O)N1CCC[C@H]1C(N)=O [MH021, Ac-PRPP-NH2] (Ac-PRPP-NH2)
≤ 300 µM	Ac-PPPPRPPKR-NH2 [MH025]
≤ 300 µM	Ac-PPPRPPKR-NH2 [MH024]
> 1000 µM	CC(=O)N1CCC[C@H]1C(=O)N[C@@H](CCCNC(=N)N)C(=O)N1CCC[C@H]1C(N)=O [MH019, Ac-PRP-NH2] (Ac-Pro-Arg-Pro-NH2)
≤ 300 µM	Ac-IPPPPRPPKR-NH2 [MH026]
> 1000 µM	CC(=O)N[C@@H](CCCNC(=N)N)C(=O)N1CCC[C@H]1C(=O)N1CCC[C@H]1C(N)=O [MH020, Ac-RPP-NH2] (Ac-Arg-Pro-Pro-NH2)
> 1000 µM	CC(=O)N[C@@H](CCCNC(=N)N)C(=O)N1CCC[C@H]1C(=O)N1CCC[C@H]1C(=O)N[C@@H](CCCCN)C(N)=O [MH016, Ac-RPPK-NH2] (Ac-RPPK-NH2)
≤ 300 µM	Ac-HIPPPPRPPKR-NH2 [MH027]
> 1000 µM	CC(=O)N1CCC[C@H]1C(=O)N1CCC[C@H]1C(=O)N[C@@H](CCCCN)C(=O)N[C@@H](CCCNC(=N)N)C(N)=O [MH017, Ac-PPKR-NH2] (Ac-PPKR-NH2)

Same assay, conditions: Sliding window peptide analysis; ITC, 25 °C, pH 8.0

Kd	Molecule
> 1000 µM	Ac-EHIPPP-NH2 [MH039, Ac-EHIPPP-NH2]
> 1000 µM	Ac-PPPRPPK-NH2 [MH041, Ac-PPPRPPK-NH2]

More lines, now with the values behind:

Molecule	Kd
Ac-PPPRPP-NH2 [MH036, Ac-PPPRPP-NH2]	> 1000 µM
Ac-PPRPPK-NH2 [MH035, Ac-PPRPPK-NH2]	> 1000 µM
Ac-IPPPPR-NH2 [MH038, Ac-IPPPPR-NH2]	> 1000 µM

Same assay, conditions: exemplary control peptides; ITC, 25 °C, pH 8.0

Kd	Molecule
> 1000 µM	Ac-SPAKGEPSLPEK-NH2 [MH133, reference compound]
> 1000 µM	H-PAVPPRP-NH2 [MH081, H-PAVPPRP-NH2, reference compound]

Same assay, conditions: substitutions at position 1 of MD18; ITC, 25 °C, pH 8.0

Kd	Molecule
≤ 300 µM	Ac-VPRPPKR-NH2 [MH123, Ac-VPRPPKR-NH2]
≤ 300 µM	Ac-GPRPPKR-NH2 [MH091, Ac-GPRPPKR-NH2]
≤ 300 µM	Ac-RPRPPKR-NH2 [MH068, Ac-RPRPPKR-NH2]
≤ 300 µM	Ac-QPRPPKR-NH2 [MH086, Ac-QPRPPKR-NH2]
≤ 300 µM	Ac-EPRPPKR-NH2 [MH071, Ac-EPRPPKR-NH2]
≤ 300 µM	Ac-IPRPPKR-NH2 [MH095, Ac-IPRPPKR-NH2]
